Test results taken from ChEMBL document CHEMBL1138895, “Synthesis and antibacterial activity of nocathiacin I analogues” (Bioorg Med Chem Lett, 2006).
≈ marks a conversion by molar mass, not a printed value.

What was measured:
[1] = Solubility at pH 8.4; type: physicochemical; details: buffer
Staphylococcus aureus = test: Antibacterial activity against methicillin-sensitive Staphylococcus aureus A15090; type: functional
Streptococcus pneumoniae = test: Antibacterial activity against penicillin resistant Streptococcus pneumoniae A28272; type: functional
Enterococcus faecalis = test: Antibacterial activity against […] A20688; type: functional
Mus musculus = species: Mus musculus; test: Activity against Staphylococcus aureus A15090 infected ICR mouse after 8 days; type: functional; details: 192 h, read-out: PD50
[2] = Solubility at pH 2.9; type: physicochemical; details: buffer
[3] = Solubility at pH 3.3; type: physicochemical; details: buffer
[4] = Solubility at pH 3.2; type: physicochemical; details: buffer
[5] = Solubility at pH 7.4; type: physicochemical; details: buffer
[6] = Solubility at pH 2.8; type: physicochemical; details: buffer
[7] = Solubility at pH 3.8; type: physicochemical; details: buffer
[8] = Solubility at pH 4.0; type: physicochemical; details: buffer
[9] = Solubility at pH 8.7; type: physicochemical; details: buffer
[10] = Solubility at pH 3.1; type: physicochemical; details: buffer

SMILES | MIC (Staphylococcus aureus) [µg/mL] | MIC (Streptococcus pneumoniae) [µg/mL] | MIC (Enterococcus faecalis) [µg/mL] | ED50 (Mus musculus) [mg/kg] | other results
CO/C(C)=C1/NC(=O)[C@H]([C@@H](C)O)NC(=O)c2csc(n2)-c2cc(O)c(-c3nc(C(=O)N[C@@H](C)C(=O)NCCS(=O)(=O)O)cs3)nc2-c2csc(n2)[C@@H]2COC(=O)c3c4c5c(cccc5n3O)COC(=O)[C@@H](O[C@H]3C[C@](C)(O)[C@H](N(C)C)[C@H](C)O3)[C@@H](OC4)[C@H](NC(=O)c3csc1n3)c1nc(cs1)C(=O)N2 | 0.25 (≈ 0.162 µM) | 0.03 (≈ 0.0194 µM) | 0.25 (≈ 0.162 µM) | > 10 | solubility [1]: > 2100 µg/mL
CO/C(C)=C1/NC(=O)[C@H]([C@@H](C)O)NC(=O)c2csc(n2)-c2cc(O)c(-c3nc(C(=O)N[C@@H](C)C(=O)NCCOCCOCCOCCOCCOCCOC4O[C@H](CO)[C@@H](O)[C@H](O)[C@H]4O)cs3)nc2-c2csc(n2)[C@@H]2COC(=O)c3c4c5c(cccc5n3O)COC(=O)[C@@H](O[C@H]3C[C@](C)(O)[C@H](N(C)C)[C@H](C)O3)[C@@H](OC4)[C@H](NC(=O)c3csc1n3)c1nc(cs1)C(=O)N2 (stereo not given in full) | 4 (≈ 2.14 µM) | 1 (≈ 0.536 µM) | 8 (≈ 4.29 µM) | – | solubility [2]: > 3700 µg/mL
CO/C(C)=C1/NC(=O)[C@H]([C@@H](C)O)NC(=O)c2csc(n2)-c2cc(O)c(-c3nc(C(=O)N[C@@H](C)C(=O)NCCCN4CCCC4)cs3)nc2-c2csc(n2)[C@@H]2COC(=O)c3c4c5c(cccc5n3O)COC(=O)[C@@H](O[C@H]3C[C@](C)(O)[C@H](N(C)C)[C@H](C)O3)[C@@H](OC4)[C@H](NC(=O)c3csc1n3)c1nc(cs1)C(=O)N2 | 0.25 (≈ 0.161 µM) | 0.25 (≈ 0.161 µM) | 0.5 (≈ 0.322 µM) | – | solubility [3]: > 2600 µg/mL
CO/C(C)=C1/NC(=O)[C@H]([C@@H](C)O)NC(=O)c2csc(n2)-c2cc(O)c(-c3nc(C(=O)N[C@@H](C)C(=O)NCCc4ccc(O)cc4)cs3)nc2-c2csc(n2)[C@@H]2COC(=O)c3c4c5c(cccc5n3O)COC(=O)[C@@H](O[C@H]3C[C@](C)(O)[C@H](N(C)C)[C@H](C)O3)[C@@H](OC4)[C@H](NC(=O)c3csc1n3)c1nc(cs1)C(=O)N2 | 0.003 (≈ 0.00192 µM) | 0.0005 (≈ 0.000321 µM) | 0.007 (≈ 0.00449 µM) | > 10 | solubility [4]: 120 µg/mL (≈ 76.9 µM)
CO/C(C)=C1/NC(=O)[C@H]([C@@H](C)O)NC(=O)c2csc(n2)-c2cc(O)c(-c3nc(C(=O)N[C@@H](C)C(=O)N4CCC(O)CC4)cs3)nc2-c2csc(n2)[C@@H]2COC(=O)c3c4c5c(cccc5n3O)COC(=O)[C@@H](O[C@H]3C[C@](C)(O)[C@H](N(C)C)[C@H](C)O3)[C@@H](OC4)[C@H](NC(=O)c3csc1n3)c1nc(cs1)C(=O)N2 | 0.007 (≈ 0.00459 µM) | 0.003 (≈ 0.00197 µM) | 0.06 (≈ 0.0394 µM) | 4.35 | solubility [4]: 1100 µg/mL (≈ 722 µM)
CO/C(C)=C1/NC(=O)[C@H]([C@@H](C)O)NC(=O)c2csc(n2)-c2cc(O)c(-c3nc(C(=O)N[C@@H](C)C(=O)NCCOP(=O)([O-])[O-])cs3)nc2-c2csc(n2)[C@@H]2COC(=O)c3c4c5c(cccc5n3O)COC(=O)[C@@H](O[C@H]3C[C@](C)(O)[C@H](N(C)C)[C@H](C)O3)[C@@H](OC4)[C@H](NC(=O)c3csc1n3)c1nc(cs1)C(=O)N2.[Na+].[Na+] | 8 | 0.5 | 16 | 1.65 | solubility [5]: > 4800 µg/mL
CO/C(C)=C1/NC(=O)[C@H]([C@@H](C)O)NC(=O)c2csc(n2)-c2cc(O)c(-c3nc(C(=O)N[C@@H](C)C(=O)N4CCC(P(=O)(OC)OC)CC4)cs3)nc2-c2csc(n2)[C@@H]2COC(=O)c3c4c5c(cccc5n3O)COC(=O)[C@@H](O[C@H]3C[C@](C)(O)[C@H](N(C)C)[C@H](C)O3)[C@@H](OC4)[C@H](NC(=O)c3csc1n3)c1nc(cs1)C(=O)N2 | 0.015 (≈ 0.00928 µM) | 0.015 (≈ 0.00928 µM) | 0.03 (≈ 0.0186 µM) | – | solubility [3]: > 3000 µg/mL
CO/C(C)=C1/NC(=O)[C@H]([C@@H](C)O)NC(=O)c2csc(n2)-c2cc(O)c(-c3nc(C(=O)N[C@@H](C)C(=O)NCCCOC4O[C@H](CO)[C@@H](O)[C@H](O)[C@H]4O)cs3)nc2-c2csc(n2)[C@@H]2COC(=O)c3c4c5c(cccc5n3O)COC(=O)[C@@H](O[C@H]3C[C@](C)(O)[C@H](N(C)C)[C@H](C)O3)[C@@H](OC4)[C@H](NC(=O)c3csc1n3)c1nc(cs1)C(=O)N2 (stereo not given in full) | 4 (≈ 2.41 µM) | 1 (≈ 0.602 µM) | 8 (≈ 4.82 µM) | – | solubility [6]: > 2000 µg/mL
CO/C(C)=C1/NC(=O)[C@H]([C@@H](C)O)NC(=O)c2csc(n2)-c2cc(O)c(-c3nc(C(=O)N[C@@H](C)C(=O)NCc4cc(O)cc(O)c4)cs3)nc2-c2csc(n2)[C@@H]2COC(=O)c3c4c5c(cccc5n3O)COC(=O)[C@@H](O[C@H]3C[C@](C)(O)[C@H](N(C)C)[C@H](C)O3)[C@@H](OC4)[C@H](NC(=O)c3csc1n3)c1nc(cs1)C(=O)N2 | 1 (≈ 0.64 µM) | 0.25 (≈ 0.16 µM) | 2 (≈ 1.28 µM) | – | solubility [7]: < 0.3 µg/mL
CO/C(C)=C1/NC(=O)[C@H]([C@@H](C)O)NC(=O)c2csc(n2)-c2cc(O)c(-c3nc(C(=O)N[C@@H](C)C(=O)NCc4ccc(CP(=O)(O)O)cc4)cs3)nc2-c2csc(n2)[C@@H]2COC(=O)c3c4c5c(cccc5n3O)COC(=O)[C@@H](O[C@H]3C[C@](C)(O)[C@H](N(C)C)[C@H](C)O3)[C@@H](OC4)[C@H](NC(=O)c3csc1n3)c1nc(cs1)C(=O)N2 | 1 (≈ 0.616 µM) | 0.25 (≈ 0.154 µM) | 2 (≈ 1.23 µM) | > 10 | solubility [5]: > 2600 µg/mL
C=C(NC(=O)c1csc(-c2nc3c(cc2O)-c2nc(cs2)C(=O)N[C@@H]([C@@H](C)O)C(=O)N/C(=C(\C)OC)c2nc(cs2)C(=O)N[C@@H]2c4nc(cs4)C(=O)N[C@@H](COC(=O)c4c5c6c(cccc6n4O)COC(=O)[C@@H](O[C@H]4C[C@](C)(O)[C@H](N(C)C)[C@H](C)O4)[C@H]2OC5)c2nc-3cs2)n1)C(N)=O [MJ347-81F4 A] | 0.007 (≈ 0.00487 µM) | 0.002 (≈ 0.00139 µM) | 0.03 (≈ 0.0209 µM) | 0.8 | solubility [8]: 340 µg/mL (≈ 237 µM)
CO/C(C)=C1/NC(=O)[C@H]([C@@H](C)O)NC(=O)c2csc(n2)-c2cc(O)c(-c3nc(C(=O)N[C@@H](C)C(=O)NCCc4ccc(S(=O)(=O)O)cc4)cs3)nc2-c2csc(n2)[C@@H]2COC(=O)c3c4c5c(cccc5n3O)COC(=O)[C@@H](O[C@H]3C[C@](C)(O)[C@H](N(C)C)[C@H](C)O3)[C@@H](OC4)[C@H](NC(=O)c3csc1n3)c1nc(cs1)C(=O)N2 | 0.5 (≈ 0.308 µM) | 0.125 (≈ 0.077 µM) | 1 (≈ 0.616 µM) | > 10 | solubility [9]: > 1200 µg/mL
CO/C(C)=C1/NC(=O)[C@H]([C@@H](C)O)NC(=O)c2csc(n2)-c2cc(O)c(-c3nc(C(=O)N[C@@H](C)C(=O)NCc4ccc(O)c(O)c4)cs3)nc2-c2csc(n2)[C@@H]2COC(=O)c3c4c5c(cccc5n3O)COC(=O)[C@@H](O[C@H]3C[C@](C)(O)[C@H](N(C)C)[C@H](C)O3)[C@@H](OC4)[C@H](NC(=O)c3csc1n3)c1nc(cs1)C(=O)N2 | 0.03 (≈ 0.0192 µM) | 0.007 (≈ 0.00448 µM) | 0.06 (≈ 0.0384 µM) | > 10 | solubility [2]: 20 µg/mL (≈ 12.8 µM)
CO/C(C)=C1/NC(=O)[C@H]([C@@H](C)O)NC(=O)c2csc(n2)-c2cc(O)c(-c3nc(C(=O)N[C@@H](C)C(=O)NCCCO)cs3)nc2-c2csc(n2)[C@@H]2COC(=O)c3c4c5c(cccc5n3O)COC(=O)[C@@H](O[C@H]3C[C@](C)(O)[C@H](N(C)C)[C@H](C)O3)[C@@H](OC4)[C@H](NC(=O)c3csc1n3)c1nc(cs1)C(=O)N2 | 0.06 (≈ 0.0401 µM) | 0.007 (≈ 0.00467 µM) | 0.03 (≈ 0.02 µM) | 1.25 | solubility [6]: 2700 µg/mL (≈ 1800 µM)
CO/C(C)=C1/NC(=O)[C@H]([C@@H](C)O)NC(=O)c2csc(n2)-c2cc(O)c(-c3nc(C(=O)N[C@@H](C)C(=O)N(C)CCO)cs3)nc2-c2csc(n2)[C@@H]2COC(=O)c3c4c5c(cccc5n3O)COC(=O)[C@@H](O[C@H]3C[C@](C)(O)[C@H](N(C)C)[C@H](C)O3)[C@@H](OC4)[C@H](NC(=O)c3csc1n3)c1nc(cs1)C(=O)N2 | 0.06 (≈ 0.0401 µM) | 0.003 (≈ 0.002 µM) | 0.03 (≈ 0.02 µM) | 1.65 | solubility [8]: 2300 µg/mL (≈ 1540 µM); solubility [10]: 2300 µg/mL (≈ 1540 µM)
CO/C(C)=C1/NC(=O)[C@H]([C@@H](C)O)NC(=O)c2csc(n2)-c2cc(O)c(-c3nc(C(=O)N[C@@H](C)C(=O)N(C)C[C@@H](O)[C@@H](O)[C@@H](O)[C@@H](O)CO)cs3)nc2-c2csc(n2)[C@@H]2COC(=O)c3c4c5c(cccc5n3O)COC(=O)[C@@H](O[C@H]3C[C@](C)(O)[C@H](N(C)C)[C@H](C)O3)[C@@H](OC4)[C@H](NC(=O)c3csc1n3)c1nc(cs1)C(=O)N2 | 0.125 (≈ 0.0773 µM) | 0.015 (≈ 0.00927 µM) | 0.5 (≈ 0.309 µM) | – | solubility [4]: > 2400 µg/mL
